Source: BindingDB's records for doi:10.1021/jm901710h (Nerviano Medical Sciences, 2010)

Molecular target: 3-phosphoinositide-dependent protein kinase 1, PDPK1 (Homo sapiens) (UniProt O15530)
Assay: Inhibition of PDK1

Chain of 3-phosphoinositide-dependent protein kinase 1, PDPK1 (Homo sapiens) (O15530 whole entry, looked up): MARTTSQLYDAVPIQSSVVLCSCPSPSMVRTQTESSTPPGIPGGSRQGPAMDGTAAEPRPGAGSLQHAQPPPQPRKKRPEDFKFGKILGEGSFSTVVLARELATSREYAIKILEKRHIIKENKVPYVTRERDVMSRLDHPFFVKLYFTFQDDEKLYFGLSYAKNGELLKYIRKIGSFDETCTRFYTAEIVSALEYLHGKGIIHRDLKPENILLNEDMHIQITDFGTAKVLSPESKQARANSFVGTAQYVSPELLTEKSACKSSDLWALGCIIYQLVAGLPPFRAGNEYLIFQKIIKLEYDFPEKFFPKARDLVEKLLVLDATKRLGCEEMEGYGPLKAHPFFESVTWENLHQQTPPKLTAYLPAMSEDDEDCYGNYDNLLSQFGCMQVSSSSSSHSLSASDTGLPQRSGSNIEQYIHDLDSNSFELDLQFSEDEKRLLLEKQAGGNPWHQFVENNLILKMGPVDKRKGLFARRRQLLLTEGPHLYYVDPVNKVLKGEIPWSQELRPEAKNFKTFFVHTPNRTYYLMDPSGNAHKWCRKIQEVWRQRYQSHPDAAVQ

| IC50 | SMILES |
| --- | --- |
| > 10 µM | CC(=O)N1CCC(Nc2ncc3c(n2)-c2c(c(C(N)=O)nn2C)CC3)CC1 [8-[(1-Acetylpiperidin-4-yl)amino]-1-methyl-4,5-dihydro-1H-pyrazolo[4,3-h]quinazoline-3-carboxamide] |
| > 10 µM | Cn1nc(C(N)=O)c2c1-c1nc(NC3CCN(C(=O)c4ccccc4)CC3)ncc1CC2 [1-Methyl-8-{[1-(phenylcarbonyl)piperidin-4-yl]amino}-4,5-dihydro-1H-pyrazolo[4,3-h]quinazoline-3-carboxamide] |
